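Protocol summary: plate cells (96-well), add compound at 5 concentrations, incubate 48 h, interpolate endpoints linearly. Here, GI50 denotes the concentration required for 50% inhibition of growth.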 Active and inactive are the calls of the source. Cut-off read from the data, not from the text of the source: active = GI50 up to about 1.1 µM and inactive = higher. Numbered stars: 1 amine (or outer) side, 2 acyl side, 3 side chain; on linkers, the order of the positions; unused ones are H or OH. Square brackets hold non-standard residues; d marks the D form. Peptide text beside a SMILES is read from it. * marks the point of attachment. X30 = CC(=O)N(C)SCC(N[*:1])C(=O)[*:2]; Cbz = O=C(OCc1ccccc1)*; Bn = c1ccc(C*)cc1
Key:
Assay in all cases: NCI anticancer screen, dose series, 48 h
[1] = system: A549
[2] = system: CCRF-CEM
[3] = system: DLD-1
[4] = system: HCC 2998
[5] = system: K562
[6] = system: M14
[7] = system: OVCAR-4
[8] = system: RPMI-8226
[9] = system: SK-MEL-5
[10] = system: SN12C
[11] = system: U-251
[12] = system: UACC-257
[13] = system: UACC-62
[14] = system: OVCAR-5
[15] = system: SK-OV-3
[16] = system: Hs-578T
[17] = system: MDA-N
[18] = system: NCI/ADR-RES
[19] = system: SR
[20] = system: T47D

| Structure (SMILES) | GI50 [1] | GI50 [2] | GI50 [3] | GI50 [4] | GI50 [5] | GI50 [6] | GI50 [7] | GI50 [8] | GI50 [9] | GI50 [10] | GI50 [11] | GI50 [12] | GI50 [13] | GI50 [14] | GI50 [15] | GI50 [16] | GI50 [17] | GI50 [18] | GI50 [19] | GI50 [20] |
| --- | --- | --- | --- | --- | --- | --- | --- | --- | --- | --- | --- | --- | --- | --- | --- | --- | --- | --- | --- | --- |
| C=CCc1cc(-c2cc(CC=C)c(O)c(CNC)c2)cc(CNC)c1O | 17.8 µM (inactive) | 7.4 µM (inactive) | 15.4 µM (inactive) | 16.3 µM (inactive) | 10.4 µM (inactive) | 15.6 µM (inactive) | 16.5 µM (inactive) | 20.7 µM (inactive) | 16.1 µM (inactive) | 17.1 µM (inactive) | 14.9 µM (inactive) | 16 µM (inactive) | 18.1 µM (inactive) |  |  |  |  |  |  |  |
| COc1ccc(/C=N/N=C(\N)NO)cc1O | 27.6 µM (inactive) | > 100 µM (inactive) | 33.8 µM (inactive) | 17.5 µM (inactive) | 82.8 µM (inactive) |  | 45.4 µM (inactive) | > 100 µM (inactive) | 31.9 µM (inactive) | 30.9 µM (inactive) | 62.5 µM (inactive) |  | 31.1 µM (inactive) | > 100 µM (inactive) | 80.2 µM (inactive) |  |  |  |  |  |
| CCOC(=O)c1nc2cc(F)c(N3CCOCC3)cc2[nH]c1=O | > 100 µM (inactive) | 96.4 µM (inactive) |  | > 100 µM (inactive) | > 100 µM (inactive) | > 100 µM (inactive) | > 100 µM (inactive) | > 100 µM (inactive) | > 100 µM (inactive) | > 100 µM (inactive) | 99.1 µM (inactive) | > 100 µM (inactive) | > 100 µM (inactive) | > 100 µM (inactive) | > 100 µM (inactive) | 56.1 µM (inactive) | > 100 µM (inactive) | > 100 µM (inactive) | 36.3 µM (inactive) | > 100 µM (inactive) |
| COc1ccccc1/C=C1\S/C(=N/Nc2nc(C)c(C(C)=O)s2)NC1=O | 44.8 µM (inactive) | 43.4 µM (inactive) |  | 94.6 µM (inactive) | 34 µM (inactive) | 74 µM (inactive) | > 100 µM (inactive) | 30.4 µM (inactive) | 19.7 µM (inactive) | 65.9 µM (inactive) | 33.7 µM (inactive) | 49.8 µM (inactive) | 36.4 µM (inactive) | 83 µM (inactive) | 74.1 µM (inactive) | 25.4 µM (inactive) | 29.9 µM (inactive) | 43.8 µM (inactive) | 31 µM (inactive) | 25.6 µM (inactive) |
| CC(=O)N1CN2C(=O)CCC2c2ccccc21 (stereo unspecified) | > 100 µM (inactive) | > 100 µM (inactive) |  | > 100 µM (inactive) | > 100 µM (inactive) | > 100 µM (inactive) | > 100 µM (inactive) | > 100 µM (inactive) | > 100 µM (inactive) | > 100 µM (inactive) | > 100 µM (inactive) | > 100 µM (inactive) | > 100 µM (inactive) | > 100 µM (inactive) | > 100 µM (inactive) | > 100 µM (inactive) | > 100 µM (inactive) | > 100 µM (inactive) | 0.165 µM (active) | > 100 µM (inactive) |
| c1csc(-c2ccc(-c3ccsc3)s2)c1 | > 100 µM (inactive) | > 100 µM (inactive) |  | > 100 µM (inactive) | > 100 µM (inactive) | > 100 µM (inactive) | > 100 µM (inactive) | > 100 µM (inactive) | > 100 µM (inactive) | > 100 µM (inactive) | > 100 µM (inactive) | > 100 µM (inactive) | > 100 µM (inactive) | > 100 µM (inactive) | > 100 µM (inactive) | 98.4 µM (inactive) | > 100 µM (inactive) | > 100 µM (inactive) | > 100 µM (inactive) | > 27.4 µM (inactive) |
| COc1cc(/C=C2\C(=O)N(c3ccccc3)C(c3ccccc3)S2(=O)=O)cc(OC)c1OC (stereo unspecified) | 43.8 µM (inactive) | 10.6 µM (inactive) |  | 64.6 µM (inactive) | 27 µM (inactive) | 35.2 µM (inactive) | 27.5 µM (inactive) | 17.2 µM (inactive) | 17.6 µM (inactive) | 39.4 µM (inactive) | 28.6 µM (inactive) | 32.1 µM (inactive) | 30.1 µM (inactive) | > 100 µM (inactive) | 62.7 µM (inactive) | 70.3 µM (inactive) | 16.4 µM (inactive) | 28.4 µM (inactive) | 24.5 µM (inactive) | 36.1 µM (inactive) |
| O=C1OC(C2Cc3cc4c(cc3C2=O)CCC4)c2ccccc21 (stereo unspecified) | 44.7 µM (inactive) | 25.6 µM (inactive) |  | 21.2 µM (inactive) | 33.6 µM (inactive) | > 100 µM (inactive) | 78.3 µM (inactive) | 35.3 µM (inactive) | 21.3 µM (inactive) | 63 µM (inactive) | 34 µM (inactive) | > 100 µM (inactive) | 20.7 µM (inactive) | > 100 µM (inactive) | 21.7 µM (inactive) | 22.5 µM (inactive) | 75.3 µM (inactive) | 63.4 µM (inactive) | 35.7 µM (inactive) | 71.3 µM (inactive) |
| COc1ccc(C(O)CNC(=O)c2ccccc2)cc1 (stereo unspecified) | > 100 µM (inactive) | > 100 µM (inactive) |  | > 100 µM (inactive) | > 100 µM (inactive) | > 100 µM (inactive) | > 100 µM (inactive) | > 100 µM (inactive) | > 100 µM (inactive) | > 100 µM (inactive) | > 100 µM (inactive) | > 100 µM (inactive) | > 100 µM (inactive) | > 100 µM (inactive) | > 100 µM (inactive) | > 100 µM (inactive) | > 100 µM (inactive) | > 100 µM (inactive) | > 100 µM (inactive) | > 100 µM (inactive) |
| CN(CC#N)C(=O)Cc1ccc([N+](=O)[O-])cc1 | > 10 µM (inactive) | > 10 µM (inactive) |  | > 10 µM (inactive) | > 10 µM (inactive) | > 10 µM (inactive) | > 10 µM (inactive) | > 10 µM (inactive) | > 10 µM (inactive) | > 10 µM (inactive) | > 10 µM (inactive) | > 10 µM (inactive) | > 10 µM (inactive) | > 10 µM (inactive) | > 10 µM (inactive) | > 10 µM (inactive) | > 10 µM (inactive) | > 10 µM (inactive) | > 10 µM (inactive) | > 10 µM (inactive) |
| Cc1cc2c(c(C(=O)NCCC(=O)N[C@@H](C)C(=O)OCc3ccccc3)c1)Oc1c(cc(C)cc1C(=O)NCCC(=O)N[C@@H](C)C(=O)OCc1ccccc1)S2 | > 100 µM (inactive) | > 100 µM (inactive) |  | > 100 µM (inactive) | > 100 µM (inactive) | > 100 µM (inactive) | > 100 µM (inactive) | > 100 µM (inactive) | > 100 µM (inactive) | > 100 µM (inactive) | > 100 µM (inactive) | > 100 µM (inactive) | > 100 µM (inactive) | > 100 µM (inactive) | 80 µM (inactive) | > 100 µM (inactive) | > 100 µM (inactive) | > 100 µM (inactive) | 43.3 µM (inactive) | > 100 µM (inactive) |
| O=C(OCCO)C1CC2CC1C1(C2)OCCO1 (stereo unspecified) | > 100 µM (inactive) | > 100 µM (inactive) | > 100 µM (inactive) |  | > 100 µM (inactive) | > 100 µM (inactive) | > 100 µM (inactive) | > 100 µM (inactive) | > 100 µM (inactive) | > 100 µM (inactive) | > 100 µM (inactive) | > 100 µM (inactive) | > 100 µM (inactive) | > 100 µM (inactive) | > 100 µM (inactive) |  |  |  |  |  |
| N#CCC(=O)N1CCCCCCC1 | > 100 µM (inactive) | > 100 µM (inactive) | > 100 µM (inactive) | 69.3 µM (inactive) | > 100 µM (inactive) | > 100 µM (inactive) | > 100 µM (inactive) |  | > 100 µM (inactive) | > 100 µM (inactive) | > 100 µM (inactive) | > 100 µM (inactive) | > 100 µM (inactive) | > 100 µM (inactive) | > 100 µM (inactive) |  |  |  |  |  |
| O=C(NC12CC3CC(CC(F)(C3)C1)C2)c1ccccc1 | > 100 µM (inactive) | > 100 µM (inactive) | > 100 µM (inactive) | > 100 µM (inactive) | > 100 µM (inactive) | > 100 µM (inactive) |  | > 100 µM (inactive) |  |  | > 100 µM (inactive) | > 100 µM (inactive) | > 100 µM (inactive) | > 100 µM (inactive) | > 100 µM (inactive) |  |  |  |  |  |
| COc1ccc(C(=O)C/C(=N/NC(N)=S)C(=O)Nc2ccccc2)cc1 | > 100 µM (inactive) | > 100 µM (inactive) | > 100 µM (inactive) | > 100 µM (inactive) | > 100 µM (inactive) | > 100 µM (inactive) | 31.9 µM (inactive) | > 100 µM (inactive) | > 100 µM (inactive) | > 100 µM (inactive) | > 100 µM (inactive) | > 100 µM (inactive) | > 100 µM (inactive) | > 100 µM (inactive) | > 100 µM (inactive) |  |  |  |  |  |
| CC(=O)N(C)SCC(NC(=O)C(Cc1ccccc1)NC(=O)OCc1ccccc1)C(=O)NC(Cc1ccccc1)C(=O)NC(Cc1c[nH]c2ccccc12)C(=O)NC(CCCCNC(=O)OCc1ccccc1)C(=O)NC(C(=O)NC(CSN(C)C(C)=O)C(=O)NC(C(N)=O)C(C)OCc1ccccc1)C(C)OCc1ccccc1 (stereo unspecified) (Cbz-F[X30]FWK(Cbz)T(Bn)[X30]T(Bn)-NH2; configuration not given here) | > 100 µM (inactive) | > 100 µM (inactive) |  | > 100 µM (inactive) | > 100 µM (inactive) | > 100 µM (inactive) | > 100 µM (inactive) | 74.3 µM (inactive) | > 100 µM (inactive) | > 100 µM (inactive) | 70.5 µM (inactive) | > 100 µM (inactive) | > 100 µM (inactive) | > 100 µM (inactive) | 1.63 µM (inactive) | > 100 µM (inactive) | > 100 µM (inactive) | > 100 µM (inactive) | > 100 µM (inactive) | > 100 µM (inactive) |
